Assay results from US11453673B2, “Substituted [1,2,4]triazolo[4,3-a]pyrazines as phosphodiesterase inhibitors” (Eli Lilly and Company, priority 2018, dated 2022).

Tests used:
Format in all cases: biochemical
human PDE4D = human PDE4D (Homo sapiens (Human), UniProt Q08499); experiment: PDE enzyme assay using [3H]cAMP as substrate (SPA); details: Mean ± standard deviation; [3H]cAMP 47 nM
Description: (§1) The nucleotide sequences encoding full-length human PDE1A (NP_001003683.1) and PDE1C (NP_005011.1) are inserted into pFastBac1 (Invitrogen) vector with an N-terminal HIS tag. The nucleotide sequences encoding full-length human PDE4D (NP_006194.2) and catalytic domain (residue 641-1141) of PDE3A (NP_000912.3) are inserted into pFastBac1 (Invitrogen) vector with a C-terminal HIS tag. The nucleotide sequences encoding full-length human PDE6A (NP_000431.2) and PDE6B (AAH00249.1) are inserted into pFastBacDual (Invitrogen) vector with an N-terminal HIS tag and N-terminal Flag tag, respectively, for production of PDE6A/6B dimer. Baculovirus generation and protein expression in Sf9 cells are carried out according to the protocol of Bac-to-Bac Baculovirus Expression system (Invitrogen). The nucleotide sequence encoding full-length human PDE1B (NP_000915.1) is inserted into pIEX4 (Novagen) with a C-terminal HIS tag, and both protein productions in Sf9 cells are carried out according to the vendor's protocol (Novagen). The His tagged PDE proteins are purified using Ni-NTA agarose (Qiagen) followed by size exclusion chromatography on a SUPERDEX© 200 column (GE Healthcare) in storage buffer (20 mM Tris-HCl, pH 7.5, 150 mM NaCl, 10% Glycerol). The Flag tagged PDE proteins including PDE6A/6B are purified using anti-Flag M2-agarose (Sigma), after purification through NiNTA column chromatography and eluted in storage buffer (50 mM Tris-HCl, pH 7.5, 150 mM NaCl, 10% Glycerol, 0.1 mg/ml Flag peptide). All purified proteins are stored at −80° C. in small aliquots.
(§2) All 3′, 5′ cyclic nucleotide PDE enzyme activities are measured with a radiometric enzyme assay based on SPA detection system. Compounds to be tested are diluted in pure DMSO using ten point concentration response curves. Maximal compound concentration in the reaction mixture is either 10 or 100 μM. Compounds at the appropriate concentration are pre-incubated with either of the PDE enzymes for 30 minutes before the reaction is started by the addition of substrate. Reactions are allowed to proceed for 60 minutes at room temperature. Next, reactions are stopped by addition of SPA beads. Samples are read 12 hours later in a MICROBETA™ TRILUX© Counter. IC50 values are calculated by plotting the normalized data vs. log [compound] and fitting the data using a four parameter logistic equation.
(§3) The following PDE activities are measured using [3H]cAMP as reaction substrate: human PDE3A (catalytic domain) and human PDE4D. Both enzymes are cloned and purified following standard procedures. The assay buffer is prepared to give a final concentration in the assay of 50 mM Tris-HCl, 8.3 mM MgCl2, 1.7 mM EDTA and 0.1% BSA at pH 7.5. Final enzyme concentrations are 0.008 and 0.021 nM for PDE3A and PDE4D, respectively. Reactions are started by addition of the substrate, [3H]cAMP, to give a final concentration of 47 nM.

[1] = target: human PDE3A (catalytic domain) (Homo sapiens (Human), UniProt Q14432); experiment: PDE enzyme assay using [3H]cAMP as substrate (SPA); details: [3H]cAMP 47 nM
Sequence of human PDE3A (catalytic domain) (Q14432 641-1141): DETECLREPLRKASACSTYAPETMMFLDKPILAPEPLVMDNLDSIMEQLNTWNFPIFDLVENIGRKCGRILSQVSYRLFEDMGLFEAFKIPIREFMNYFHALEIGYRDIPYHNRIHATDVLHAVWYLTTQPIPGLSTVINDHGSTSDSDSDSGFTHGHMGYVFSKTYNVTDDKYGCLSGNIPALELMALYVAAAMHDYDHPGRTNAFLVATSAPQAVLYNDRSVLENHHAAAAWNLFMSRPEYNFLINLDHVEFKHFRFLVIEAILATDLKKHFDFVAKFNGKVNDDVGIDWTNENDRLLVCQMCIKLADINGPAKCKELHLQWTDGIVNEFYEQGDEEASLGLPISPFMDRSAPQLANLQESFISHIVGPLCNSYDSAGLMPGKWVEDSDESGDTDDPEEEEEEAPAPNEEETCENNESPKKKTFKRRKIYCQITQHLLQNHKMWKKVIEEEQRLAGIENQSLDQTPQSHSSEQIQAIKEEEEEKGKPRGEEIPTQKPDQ
Description: as §1, §2, §3

human PDE1C = human PDE1C (Homo sapiens (Human), UniProt Q14123); experiment: Ca2+-calmodulin dependent PDE enzyme assay (radiometric SPA, [3H]cAMP); details: Mean ± standard deviation; [3H]cAMP 47 nM; read-out: PDE 1C IC50
Description: as §1, §2
(§4) PDE1B, PDE1A, and PDE1C are cloned and purified following standard protein generation procedures. […] The final enzyme concentration is 0.25, 0.074 and 0.0012 nM, for PDE1A, PDE1B and PDE1C respectively. The reactions are started by addition of the substrate, [^3H]cAMP, to give a final concentration of 47 nM.

human PDE6A/6B = human PDE6A/6B (Homo sapiens (Human), UniProt P16499+P35913); experiment: PDE enzyme assay using [3H]cGMP as substrate (SPA); details: [3H]cGMP 80 nM; read-out: PDE6AB IC50
Sequence of human PDE6A/6B (P16499 whole entry): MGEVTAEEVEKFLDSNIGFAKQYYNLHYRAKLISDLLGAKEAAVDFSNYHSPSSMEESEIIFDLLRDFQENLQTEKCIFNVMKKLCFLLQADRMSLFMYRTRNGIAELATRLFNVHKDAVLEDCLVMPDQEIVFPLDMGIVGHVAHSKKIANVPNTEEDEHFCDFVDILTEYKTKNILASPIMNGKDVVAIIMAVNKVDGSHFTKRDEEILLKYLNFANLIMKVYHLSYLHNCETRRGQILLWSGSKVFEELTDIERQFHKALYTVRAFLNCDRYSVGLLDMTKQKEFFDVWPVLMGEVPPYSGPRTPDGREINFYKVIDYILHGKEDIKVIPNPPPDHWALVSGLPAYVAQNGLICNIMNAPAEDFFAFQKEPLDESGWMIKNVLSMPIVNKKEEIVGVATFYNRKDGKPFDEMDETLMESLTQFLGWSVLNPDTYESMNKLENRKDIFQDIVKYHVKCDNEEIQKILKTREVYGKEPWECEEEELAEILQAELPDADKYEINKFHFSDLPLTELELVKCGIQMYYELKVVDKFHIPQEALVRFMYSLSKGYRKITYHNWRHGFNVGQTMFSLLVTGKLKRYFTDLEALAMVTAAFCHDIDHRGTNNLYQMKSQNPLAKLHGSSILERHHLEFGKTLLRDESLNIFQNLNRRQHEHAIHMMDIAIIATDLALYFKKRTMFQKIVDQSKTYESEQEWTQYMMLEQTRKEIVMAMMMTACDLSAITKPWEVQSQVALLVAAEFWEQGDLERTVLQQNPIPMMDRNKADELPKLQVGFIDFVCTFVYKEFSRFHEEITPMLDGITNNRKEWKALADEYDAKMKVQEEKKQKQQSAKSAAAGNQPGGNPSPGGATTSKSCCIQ
Sequence of human PDE6A/6B (P35913 whole entry): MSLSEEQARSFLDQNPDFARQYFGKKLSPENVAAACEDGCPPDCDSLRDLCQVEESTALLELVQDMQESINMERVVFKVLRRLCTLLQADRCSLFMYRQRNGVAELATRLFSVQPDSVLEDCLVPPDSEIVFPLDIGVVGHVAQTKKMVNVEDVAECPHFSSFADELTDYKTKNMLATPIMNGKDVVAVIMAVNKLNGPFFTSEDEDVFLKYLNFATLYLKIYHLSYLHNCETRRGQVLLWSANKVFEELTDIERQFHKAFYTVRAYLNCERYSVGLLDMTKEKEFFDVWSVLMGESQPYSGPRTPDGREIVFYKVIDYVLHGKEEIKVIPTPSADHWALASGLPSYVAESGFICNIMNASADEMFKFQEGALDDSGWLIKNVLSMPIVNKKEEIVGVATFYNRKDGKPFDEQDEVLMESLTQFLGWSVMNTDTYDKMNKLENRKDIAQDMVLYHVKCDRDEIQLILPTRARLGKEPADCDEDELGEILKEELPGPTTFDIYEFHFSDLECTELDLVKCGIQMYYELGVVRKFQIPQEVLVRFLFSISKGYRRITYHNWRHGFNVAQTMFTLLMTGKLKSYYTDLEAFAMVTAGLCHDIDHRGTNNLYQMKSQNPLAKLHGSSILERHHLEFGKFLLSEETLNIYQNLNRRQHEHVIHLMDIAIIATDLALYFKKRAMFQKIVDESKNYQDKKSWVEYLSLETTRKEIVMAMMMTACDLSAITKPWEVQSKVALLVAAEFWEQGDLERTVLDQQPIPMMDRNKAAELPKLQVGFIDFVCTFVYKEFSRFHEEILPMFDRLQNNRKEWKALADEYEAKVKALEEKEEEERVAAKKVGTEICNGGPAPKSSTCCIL
Description: as §1, §2
The following phosphodiesterase activities are measured using [3H]cGMP as reaction substrate: human PDE6A/6B. The catalytic active form of human PDE6 is a dimer composed of an a (human PDE6A) and […] (human PDE6B). The dimer of human PDE6A/6B is produced by the coexpression and purification strategy, using two purification steps, i.e., NiNTA and anti-FLAG Sepharose chromatography. The assay buffer is prepared to give a final concentration in the assay of 50 mM Tris-HCl, 8.3 mM MgCl2, 1.7 mM EDTA and 0.1% BSA at pH 7.5. The final enzyme concentration is 5 nM. The reactions are started by addition of the substrate, [3H]cGMP, to give a final concentration of 80 nM.

human PDE1A = human PDE1A (Homo sapiens (Human), UniProt P54750); experiment: Ca2+-calmodulin dependent PDE enzyme assay (radiometric SPA, [3H]cAMP); details: Mean ± standard deviation; [3H]cAMP 47 nM; read-out: PDE 1A IC50
Description: as §1, §2, §4

human PDE1B = human PDE1B (Homo sapiens (Human), UniProt Q01064); experiment: as above; details: Mean ± standard deviation; [3H]cAMP 47 nM; read-out: PDE 1B IC50
Description: as §1, §2, §4

Sequence of human PDE4D (Q08499 other isoform, or with tags, fused parts or gaps): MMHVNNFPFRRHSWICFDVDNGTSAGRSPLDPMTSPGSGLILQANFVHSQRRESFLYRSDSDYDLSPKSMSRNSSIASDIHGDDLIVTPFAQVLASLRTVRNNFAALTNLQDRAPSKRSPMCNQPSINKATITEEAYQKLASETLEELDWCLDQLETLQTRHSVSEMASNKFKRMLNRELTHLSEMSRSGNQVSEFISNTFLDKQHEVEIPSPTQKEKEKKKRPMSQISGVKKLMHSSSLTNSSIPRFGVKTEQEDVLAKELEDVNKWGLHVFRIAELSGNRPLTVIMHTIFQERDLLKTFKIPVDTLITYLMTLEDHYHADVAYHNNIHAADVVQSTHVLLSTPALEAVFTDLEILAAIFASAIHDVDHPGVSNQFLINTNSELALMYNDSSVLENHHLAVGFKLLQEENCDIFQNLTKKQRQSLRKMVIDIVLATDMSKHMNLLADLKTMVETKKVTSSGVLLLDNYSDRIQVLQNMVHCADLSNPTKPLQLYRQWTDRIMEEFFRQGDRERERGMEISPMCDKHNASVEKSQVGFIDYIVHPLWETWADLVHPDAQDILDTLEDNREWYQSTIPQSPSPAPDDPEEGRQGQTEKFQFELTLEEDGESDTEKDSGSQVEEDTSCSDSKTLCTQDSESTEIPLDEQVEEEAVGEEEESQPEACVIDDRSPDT

| SMILES | IC50 (human PDE4D) | IC50 [1] | IC50 (human PDE1C) | IC50 (human PDE6A/6B) | IC50 (human PDE1A) | IC50 (human PDE1B) |
| --- | --- | --- | --- | --- | --- | --- |
| Cc1c(C)n2c(C3(C4CC4)CC3)nnc2c(=O)n1CC1CCCCO1 (racemic) [Example 6, 3-(1-cyclopropylcyclopropyl)-5,6-dimethyl-7-(tetrahydropyran-2-ylmethyl)-[1,2,4]triazolo[4,3-a]pyrazin-8-one] | 30.9 µM | > 100 µM | 0.00188 ± 0.00056 µM | > 10 µM | – | – |
| CCC1(c2nnc3c(=O)n(CC4CCCCO4)c(C)c(C)n23)CC1 (racemic) [Example 7, 3-(1-Ethylcyclopropyl)-5,6-dimethyl-7-(tetrahydropyran-2-ylmethyl)-[1,2,4]triazolo[4,3-a]pyrazin-8-one] | 46.5 µM | > 100 µM | 0.00776 µM | > 10 µM | – | – |
| Cc1c(C)n2c(C3(C)CC3)nnc2c(=O)n1CC1CCCCO1 (racemic) [Example 8, 5,6-Dimethyl-3-(1-methylcyclopropyl)-7-(tetrahydropyran-2-ylmethyl)-[1,2,4]triazolo[4,3-a]pyrazin-8-one] | 57.7 µM | > 100 µM | – | 2.66 µM | – | – |
| Cc1c(C)n2c(C3(C4CC4)CC3)nnc2c(=O)n1CC1CCCCO1 (single isomer, unassigned) [Example 9, 3-(1-Cyclopropylcyclopropyl)-5,6-dimethyl-7-(tetrahydropyran-2-ylmethyl)-[1,2,4]triazolo[4,3-a]pyrazin-8-one] | 33.1 µM | > 100 µM | 0.000958 ± 0.000487 µM | > 10 µM | – | – |
| Cc1c(C)n2c(C3(C4CC4)CC3)nnc2c(=O)n1CC1CCCCO1 (single isomer, unassigned) [Example 10] | 21.4 µM | > 100 µM | 0.002 ± 0.000311 µM | > 10 µM | – | – |
| CCC1(c2nnc3c(=O)n(CC4CCCCO4)c(C)c(C)n23)CC1 (single isomer, unassigned) [Example 11, 3-(1-Ethylcyclopropyl)-5,6-dimethyl-7-(tetrahydropyran-2-ylmethyl)-[1,2,4]triazolo[4,3-a]pyrazin-8-one] | 67.2 µM | > 100 µM | 0.00477 ± 6e-05 µM | > 10 µM | 0.0132 µM | – |
| CCC1(c2nnc3c(=O)n(CC4CCCCO4)c(C)c(C)n23)CC1 (single isomer, unassigned) [Example 12, 3-(1-Ethylcyclopropyl)-5,6-dimethyl-7-(tetrahydropyran-2-ylmethyl)-[1,2,4]triazolo[4,3-a]pyrazin-8-one] | 31 µM | > 100 µM | 0.0132 µM | 7.62 µM | 0.0446 µM | – |
| Cc1c(C)n2c(C3(C)CC3)nnc2c(=O)n1CC1CCCCO1 (single isomer, unassigned) [Example 13, 5,6-Dimethyl-3-(1-methylcyclopropyl)-7-(tetrahydropyran-2-ylmethyl)-[1,2,4]triazolo[4,3-a]pyrazin-8-one] | > 100 µM | > 100 µM | – | > 10 µM | – | – |
| Cc1c(C)n2c(C3(C)CC3)nnc2c(=O)n1CC1CCCCO1 (single isomer, unassigned) [Example 14, 5,6-Dimethyl-3-(1-methylcyclopropyl)-7-(tetrahydropyran-2-ylmethyl)-[1,2,4]triazolo[4,3-a]pyrazin-8-one] | 40.8 µM | > 100 µM | – | > 10 µM | – | – |
| Cn1cc(Cc2cn3c(C4(C5CC5)CC4)nnc3c(=O)n2CC2CC2)cn1 [Example 1, 3-(1-Cyclopropylcyclopropyl)-7-(cyclopropylmethyl)-6-[(1-methylpyrazol-4-yl)methyl]-[1,2,4]triazolo[4,3-a]pyrazin-8-one] | 5.59 µM | > 100 µM | 0.012 ± 0.004 µM | > 10 µM | 0.0203 ± 0.0005 µM | 0.0294 ± 0.0116 µM |
| Cc1c(C)n2c(C3(C4CC4)CC3)nnc2c(=O)n1CC1CC1 [Example 2, 3-(1-Cyclopropylcyclopropyl)-7-(cyclopropylmethyl)-5,6-dimethyl-[1,2,4]triazolo[4,3-a]pyrazin-8-one] | 23.8 ± 0.8 µM | > 100 µM | 0.00281 ± 0.00088 µM | > 10 µM | 0.00373 ± 0.00202 µM | 0.00411 ± 0.0011 µM |
| CCCCCn1c(C)c(C)n2c(C3(C4CC4)CC3)nnc2c1=O [Example 3, 3-(1-Cyclopropylcyclopropyl)-5,6-dimethyl-7-pentyl-[1,2,4]triazolo[4,3-a]pyrazin-8-one] | 14.3 µM | > 100 µM | 0.00126 ± 0.00061 µM | > 10 µM | 0.011 ± 0.002 µM | 0.00936 ± 0.00201 µM |
| Cc1c(C)n2c(C3(C4CC4)CC3)nnc2c(=O)n1CC1CCC1 [Example 4, 7-(Cyclobutylmethyl)-3-(1-cyclopropylcyclopropyl)-5,6-dimethyl-[1,2,4]triazolo[4,3-a]pyrazin-8-one] | 24 µM | > 100 µM | 0.00106 ± 0.00024 µM | > 10 µM | 0.00371 ± 8e-05 µM | 0.00365 ± 0.00188 µM |
| CCCCn1c(C)c(C)n2c(C3(C4CC4)CC3)nnc2c1=O [Example 5, 7-Butyl-3-(1-cyclopropylcyclopropyl)-5,6-dimethyl-[1,2,4]triazolo[4,3-a]pyrazin-8-one] | 29.9 µM | > 100 µM | 0.0027 ± 0.00016 µM | > 10 µM | 0.0115 ± 0.0036 µM | 0.0111 ± 0.003 µM |
| Cc1c(C)n2c(C3(C4CC4)CC3)nnc2c(=O)n1CC1(C)CC1 [Example 15, 3-(1-Cyclopropylcyclopropyl)-5,6-dimethyl-7-[(1-methylcyclopropyl)methyl]-[1,2,4]triazolo[4,3-a]pyrazin-8-one] | 14 ± 1.3 µM | 9.6 µM | 0.0014 ± 0.0003 µM | > 10 µM | 0.0031 ± 0.0011 µM | 0.0049 ± 0.0018 µM |
| CCCCn1c(C)c(CC)n2c(C3(C4CC4)CC3)nnc2c1=O [Example 16, 7-Butyl-3-(1-cyclopropylcyclopropyl)-5-ethyl-6-methyl-[1,2,4]triazolo[4,3-a]pyrazin-8-one] | 22.3 µM | > 100 µM | 0.0012 ± 0.00094 µM | > 10 µM | 0.00867 ± 0.00791 µM | 0.00654 ± 0.00261 µM |
